“Also recorded” adds a separate entry of the source.
Key:
[1] = tested on: PI3K; assay: PI3K kinase assay (PIP3 production) in insulin-stimulated BT549 cells; type: cell-based; settings: BT549 (breast cancer cell line), insulin-activated, varying doses
Protocol: (§1) Insulin was used to activate the PI3K pathway in three different cell lines: (FIG. 5A) BEAS-2B (bronchial airway cell line), (FIG. 5B) BT549 (breast cancer cell line), and (FIG. 5C) HEK293 (human embryonic kidney cell line). The cell lines were then treated with varying doses of myo-inositol and LY-294002. PIP3 levels were measured to quantify the activation levels of the PI3K pathway (y-axis). […] Replication of these experiments produced similar results.
(§2) 80% confluent BEAS-2B, BT549, or HEK293 cells were starved in BEBM, RPMI, or DMEM medium, respectively (Clonetics, GibcoBRL). This media contained either 0.1% added supplements for the BEAS-2B cells or 0.1% fetal bovine serum for BT549 and HEK293 cells for 24 hrs. […] The production of PIP3 was evaluated by autoradiography and quantified by densitometry analysis and scintillation analysis. […]
(§3) A reduction in PI3K activity in patients that responded to myo-inositol with a regression of dysplasia in their airway reinforces the association between elevated PI3K activity levels and the presence of pre-neoplastic airway lesions. […] PI3K activity, as measured by PIP3 levels, was then quantified using a standard kinase assay protocol. For this experiment, three different cell lines were analyzed in replicate: BEAS-2B (airway), BT549 (breast cancer) and HEK293 (embryonic kidney). […]

[2] = tested on: PI3K; assay: PI3K kinase assay (PIP3 production) in insulin-stimulated BEAS-2B cells; type: cell-based; settings: BEAS-2B (bronchial airway cell line), insulin-activated, varying doses
Protocol: as §1, §2, §3

[3] = tested on: PI3K pathway; assay: GSEA of PI3K gene sets in cytologically normal airway epithelium before versus after myo-inositol treatment; type: in vivo, human
Protocol: Cytologically normal airway epithelial samples from patients with dysplastic airway lesions at the University of British Columbia were collected before and after 2-3 months of treatment with myo-inositol (n=20, 10 patients with two samples each), as well as six additional samples collected pre-treatment with myo-inositol as part of a dose response study. In that study, bronchial brushing was performed in three separate 6-8th generation bronchial airways using a 1.7 mm diameter bronchial cytology brush (Hobbs Medical, Stafford Springs, Conn.). The brush was retrieved and immediately immersed in RNALater and kept frozen at −80° C. until assayed. Epithelial cell content of representative bronchial brushing samples has been quantitated by cytocentrifugation (ThermoShandon Cytospin, Pittsburgh, Pa.) of the cell pellet and staining with a cytokeratin antibody (Signet, Dedham Mass.). The cells in the bronchial brush contained >90% bronchial epithelial cells. […]
Gene Set Enrichment Analysis was calculated using GSEA v2. […] Genes were ranked using the following linear model (as calculated in R): Y=β0+β1+β2+b+ε Where Y is the expression of a gene, β0 is the intercept, β1 measures lung cancer risk (whether the sample has dysplasia or not), β2 is the cumulative cigarette smoke exposure for each person (pack-years), b is a random effect correcting for batch differences, and ε is the error term. […]

[4] = tested on: PI3K; assay: PI3K kinase assay (PIP3 production) in insulin-stimulated HEK293 cells; type: cell-based; settings: HEK293 (human embryonic kidney cell line), insulin-activated, varying doses
Protocol: as §1, §2, §3

[5] = tested on: dysplastic airway lesions; settings: cited from earlier work

Compound: O[C@H]1[C@H](O)[C@@H](O)[C@H](O)[C@@H](O)[C@H]1O [myo-inositol]
- PI3K activity, as measured by PIP3 levels [1]: inhibited PI3K activity levels in a dose-dependent manner; also recorded: drop in PIP3 levels
- PI3K activity, as measured by PIP3 levels [2]: inhibited PI3K activity levels in a dose-dependent manner; also recorded: drop in PIP3 levels
- change in expression of PI3K gene sets (GSEA), before versus after treatment ([3]; subjects that did not respond to treatment (n=3, 6 samples)): no change in the levels of the PI3K gene sets
- change in expression of PI3K gene sets (GSEA), before versus after treatment ([3]; subjects who did respond to treatment (n=6, 12 samples), p=0.04, FDR Q=0.177): increased expression of genes in the PI3K Down gene set
- PI3K activity, as measured by PIP3 levels [4]: inhibited PI3K activity levels in a dose-dependent manner; also recorded: drop in PIP3 levels
- rate of dysplastic regression ([5]; oral, 2-3 months, smokers with moderate-severe dysplasia, versus placebo-treated control patients): significantly increase the rate of dysplastic regression
- side effects ([5]; taken orally): very minor side effects

From US10570454B2, “Methods of identifying individuals at increased risk of lung cancer” (Trustees of Boston University, priority 2007, dated 2020)
